Key:
[1] = cited from earlier work
[2] = Stability to hydrolysis versus commercial formulations; assay type: physicochemical; conditions: in a CX, microencapsulated in NPμ and combined with sulfosate
Source text: This refers to the typical variations: thifensulfuron-ethyl<→thifensulfuron, etc.

[3] = Accelerated heat stability test (54° C.), physical stability and chemical degradation by HPLC; assay type: physicochemical; conditions: NPμ in a CX-w; results and process not shown
Description: Both formulations were submitted to accelerated heat stability tests (at 54° C. for 2 weeks).
Also, presence of unencapsulated material—water soluble a.i.—was below 0.1%.
These tests were performed with HPLC and standard methods of analysis under Good Laboratory Practice conditions.

For O=C(O)c1cc(Oc2ccc(C(F)(F)F)cc2Cl)ccc1[N+](=O)[O-] [acifluorfen-sodium], the solubility in isooctanol ([1]; isooctanol) is listed as “around 6 g/L” and the solubility in water ([1]; water) is listed as “about 60 g/L”.

For COc1cc(OC)nc(NC(=O)NS(=O)(=O)c2ncccc2C(=O)N(C)C)n1 [nicosulfuron], the “more stable to hydrolysis than current commercial formulations” value [2] was “at least 20 % times”.

For CC(C)(C)C(O)(CCc1ccc(Cl)cc1)Cn1cncn1 (centres unmarked) [tebuconazole], the solubility in hexane ([1]; hexane) is given as “lower than 0.1 g/L”.

In the case of COC(=O)c1ccccc1S(=O)(=O)NC(=O)N(C)c1nc(C)nc(OC)n1 [tribenuron-methyl], the “degradation inhibition by microencapsulation” value [3] is reported as “equally observed”.

From patent US8337900B2, “Reverse-phase microcapsules for active ingredients, simplified process of manufacture thereof and combined formulation WDG-CS, ZC, EC-SC, and CX” (priority 2006, dated 2012)
